Data as given in patent EP4389746A2, “P2X3 RECEPTOR ANTAGONISTS” (Recordati Industria Chimica E Farmaceutica SPA, priority 2022, dated 2024).

How the values were obtained:
C57BL/6J mice = assay: Scratching model: inhibition of ATP induced pruritus in mouse; format: in vivo; conditions: dose inhibiting the 35% of number of bouts, intraperitoneally 30 min before α,β-meATP 200 µg/50 µL intradermal, bouts counted for 30 minutes
Method: (§1) C57BL/6J mice, Hartley Guinea pigs and Sprague-Dawley Rats from Charles River Italy were used in the experiments. Animals were housed with free access to food and water and maintained on a forced 12 hr light-dark cycle at 22-24°C for at least one week before the experiments were carried out. The animals were handled according to internationally accepted principles for care of laboratory animals (Directive 2010/63/EU of the European Parliament and of the Council of 22 September 2010).
"Scratchng model" - Inhibition of ATP induced pruritus in mouse
Mice were shaved at the rostral back the day before injection. The day of the experiment, an intradermal injection of the irritant agent α,β-meATP 200 µg/50 µL (Sigma, Italy) into the skin was performed. The hind limb scratching behavior directed toward the injection site, was recorded. One bout was defined as the lifting of the hindlimb toward the injection site and then placing the limb back on the floor. The number of bouts were counted for a period of 30 minutes. The Example 22 compound investigated was injected intraperitoneally 30 min before the administration of the irritant agent. (Fig. 2)
In the scratching model the results are presented as mean ± SEM of the values. Statistical analysis was performed using one-way ANOVA and Dunnet's test for multiple comparisons. The ED35 of the tested compounds was determined by linear regression analysis of bouts (Graphpad v5).

human P2X2/3 receptor = biological target: T1, human P2X2/3 receptor (Homo sapiens, UniProt P56373+Q9UBL9); assay: Calcium fluorescence measurement: human P2X2/3 receptor activity inhibition (CHO-K1 cells, Fluo-8 NoWash, […]); format: cell-based; conditions: for IC50: CHO-K1 cells expressing human P2RX2/X3 channel, 10µM α,β-Met-ATP, read-out: h-P2X2/3 IC50; for Selectivity: ratio of IC50 of P2X2/3/ P2X3 receptors
T1 construct: expressed in transfected cells; host or cells: CHO-K1
T1 sequence (P56373 1-397): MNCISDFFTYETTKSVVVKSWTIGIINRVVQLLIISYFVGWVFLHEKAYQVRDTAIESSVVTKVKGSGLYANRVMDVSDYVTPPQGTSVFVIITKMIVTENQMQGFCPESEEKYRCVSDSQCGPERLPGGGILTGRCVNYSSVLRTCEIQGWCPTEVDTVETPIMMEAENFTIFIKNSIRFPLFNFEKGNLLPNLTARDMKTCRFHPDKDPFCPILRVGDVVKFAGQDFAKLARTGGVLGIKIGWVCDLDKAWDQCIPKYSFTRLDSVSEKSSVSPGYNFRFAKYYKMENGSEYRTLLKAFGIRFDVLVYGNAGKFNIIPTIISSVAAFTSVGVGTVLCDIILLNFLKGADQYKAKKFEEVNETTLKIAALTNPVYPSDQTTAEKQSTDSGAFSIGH
T1 sequence (Q9UBL9 1-471): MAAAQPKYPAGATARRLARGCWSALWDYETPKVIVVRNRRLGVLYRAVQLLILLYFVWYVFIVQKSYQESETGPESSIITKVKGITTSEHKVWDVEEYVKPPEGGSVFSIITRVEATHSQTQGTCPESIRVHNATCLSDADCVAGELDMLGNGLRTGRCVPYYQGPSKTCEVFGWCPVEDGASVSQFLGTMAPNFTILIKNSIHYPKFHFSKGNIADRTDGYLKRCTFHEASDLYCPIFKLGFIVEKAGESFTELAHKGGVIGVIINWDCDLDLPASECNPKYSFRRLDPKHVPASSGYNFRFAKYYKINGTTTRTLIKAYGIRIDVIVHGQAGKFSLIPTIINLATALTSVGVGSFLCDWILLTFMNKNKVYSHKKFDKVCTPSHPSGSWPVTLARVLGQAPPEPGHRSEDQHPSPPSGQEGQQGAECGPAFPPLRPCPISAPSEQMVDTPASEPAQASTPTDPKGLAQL
Method: Determination of human P2X2/3 receptor activity inhibition
The assay for the human P2RX2/X3 has been evaluated by the screening instrumentation using the […] as reader and the FLUO8-NoWash dye as fluorescent readout for calcium detection.
CHO-K1 cells recombinantly expressing the human P2RX2/X3 channel are maintained in DMEM F-12 (1:1) mixture (LONZA cat. n°: BE04-687F/U1) supplemented with 5 mL of 100 mM Sodium Pyruvate (LONZA cat. n° BE13-115E), 25 mL of 7.5% Sodium Bicarbonate (LONZA cat. n° BE17-613E), 6.5 mL of 1M Hepes (LONZA cat. n° BE17-737E), 5 mL of 100X Penicillin/Streptomycin mixture (LONZA cat. n° DE17-602E) and 50 mL of Fetal Bovine Serum (Sigma cat. n° F7524), 5 µg/mL Puromycin dihydrochloride (Sigma cat. n° P9620) and 1 mg/ml G418 disulfate salt (Sigma cat. n° G8168).
Cells were seeded into black-walled clear bottom 384 Multiwell plates at a density of 10.000 cells/well in complete medium. After 24 h the culture medium was replaced with 20 µL/well of Fluo-8 NoWash calcium sensitive dye (AAT Bioquest cat. n° 36316) diluted in Tyrode's buffer (Standard Tyrode's buffer: in house solution, 130 mM NaCl, 5 mM KCl, 2 mM CaCl2, 5 mM NaHCO3, 1 mM MgCl2, 20 mM HEPES, pH 7.4).
The plates were incubated for 1 hours at 37°C and injected with 10 µL/well of test compounds at 3X concentration in Tyrode's buffer with the […]. After 5 minutes a second injection of 15 µL/well of 10µM α,β-Met-ATP in Tyrode's buffer (α,β-Met-ATP: from Tocris cat. n° 3209) was performed and the signal of the emitted fluorescence was recorded by […] (Molecular Devices).
The selectivity is expressed as the ratio of IC50 of P2X2/3/ P2X3 receptors. Table 8: Human P2X3 and h-P2X2/3 receptor antagonist activity for selected compounds of the invention.

human P2X3 receptor = biological target: T2, human P2X3 receptor (Homo sapiens, UniProt P56373); assay: Calcium luminescence measurement: human P2X3 receptor activity inhibition (CHO-K1 cells, photoprotein readout, FLEXSTATION); format: cell-based; conditions: CHO-K1 cells co-expressing human P2X3 and Ca2+ sensitive photoprotein; agonist α,β-Met-ATP; read-out: h-P2X3 IC50
T2 construct: expressed in transfected cells; host or cells: CHO-K1
T2 sequence (P56373 1-397): T1 sequence (P56373 1-397)

Sprague-Dawley Rats = assay: Two bottle taste test in rats: dysgeusia effect of P2X3 antagonists; format: in vivo; conditions: rats water fasted overnight; bottles presented 30 minutes after treatment for 15 minutes (Fig. 4)
Method: as §1
(Fig 3) "Two bottle taste test" in rats - Dysgeusia effect of P2X3 antagonists
Rats were water fasted overnight. The day of the experiment the animals were treated with tested compounds and 30 minutes later two bottles were presented for 15 minutes, the first one containing water and the second bottle containing Quinine, a substance showing a bitter taste. The volume of liquid drunk in 15 minutes from each bottle was recorded and expressed as percentage of preference (Fig.4). Statistical analysis was performed on absolute values (mean ± SEM) using one-way ANOVA and Tukey's test for multiple comparisons.

| Structure (SMILES) | IC50 (human P2X2/3 receptor) | Selectivity (human P2X2/3 receptor) | IC50 (human P2X3 receptor) | ED35 (C57BL/6J mice) | preference between water and Quinine (Sprague-Dawley Rats) |
| --- | --- | --- | --- | --- | --- |
| CC(C)C1C(=O)N=C2c3nnc(N4CCOCC4)cc3N(Cc3ccc(Cl)cc3)C(=O)N21 (stereo not shown) [Example 28, 5-[(4-Chlorophenyl)methyl]-3-(morpholin-4-yl)-8-(propan-2-yl)imidazo[1',2':1,6]pyrimido[5,4-c]pyridazine-6,9(5H,8H)-dione] | > 30000 nM | >1800 | 16.6 nM | 22.54 mg/kg | – |
| COc1ccc(Cn2c(=O)n3c(C(C)(C)C)nnc3c3ncc(N4CCN(C(C)=O)CC4)cc32)cc1 [Example 36, 8-(4-Acetylpiperazin-1-yl)-3-tert-butyl-6-[(4-methoxyphenyl)methyl]pyrido[2,3-e][1,2,4]triazolo[4,3-c]pyrimidin-5(6H)-one] | > 30000 nM | >119 | 136 nM | – | – |
| COc1ccc(Cn2c(=O)n3c(C(C)(C)C)nnc3c3ncc(N4CCCCC4)cc32)cc1 [Example 38, 3-tert-Butyl-6-[(4-methoxyphenyl)methyl]-8-(piperidin-1-yl)pyrido[2,3-e][1,2,4]triazolo[4,3-c]pyrimidin-5(6H)-one] | 19900 nM | >392 | 50.6 nM | – | – |
| COC(C)(C)c1nnc2c3nnc(N4CCOCC4)cc3n(Cc3ccc(Cl)cc3)c(=O)n12 [Example 48, 6-[(4-Chlorophenyl)methyl]-3-(2-methoxypropan-2-yl)-8-(morpholin-4-yl)[1,2,4]triazolo[4',3': 1,6]pyrimido[5,4-c]pyridazin-5(6H)-one] | > 30000 nM | >1000 | 24.9 nM | – | – |
| CN(C)c1nnc2c3nnc(N4CCOCC4)cc3n(Cc3ccc(Cl)cc3)c(=O)n12 [Example 50, 6-[(4-Chlorophenyl)methyl] -3 - (dimethylamino)-8-(morpholin-4-yl)[1,2,4]triazolo[4',3': 1,6]pyrimido[5,4-c]pyridazin-5(6H)-one] | > 30000 nM | >304 | 98.6 nM | – | – |
| COc1cc(C(C)C)c(Oc2cnc(N)nc2N)cc1S(N)(=O)=O [Gefapixant, reference compound] | – | – | – | – | showed altered taste function and poor preference between water and Quinine bottles |

Further lines, with some results ahead:

| IC50 (human P2X2/3 receptor) | Selectivity (human P2X2/3 receptor) | IC50 (human P2X3 receptor) | Structure (SMILES) | ED35 (C57BL/6J mice) | preference between water and Quinine (Sprague-Dawley Rats) |
| --- | --- | --- | --- | --- | --- |
| > 30000 nM | >697 | 43 nM | CC(=O)N1CCN(c2cnc3c(c2)n(Cc2ccc(Cl)cc2)c(=O)n2c(C(C)(C)C)nnc32)CC1 [Example 34, 8-(4-Acetylpiperazin-1-yl)-3-tert-butyl-6-[(4-chlorophenyl)methyl]pyrido[2,3-e][1,2,4]triazolo[4,3-c]pyrimidin-5(6H)-one] | 12.42 mg/kg | – |
| > 30000 nM | >444 | 67.6 nM | CC(C)(C)c1nnc2c3ncc(N4CC[C@@H](O)C4)cc3n(Cc3ccc(Cl)cc3)c(=O)n12 [Example 43, 3-tert-Butyl-6-[(4-chlorophenyl)methyl]-8-[(3R)-3-hydroxypyrrolidin-1-yl]pyrido[2,3-e][1,2,4]triazolo[4,3-c]pyrimidin-5(6H)-one] | – | – |
| 3900 nM | 582 | 6.73 nM | CC(C)(C)c1nnc2c3nnc(N4CCOCC4)cc3n(Cc3ccc(Cl)cc3)c(=O)n12 [Example 44, 3-tert-Butyl-6-[(4-chlorophenyl)methyl]-8-(morpholin-4-yl)[1,2,4]triazolo[4',3': 1,6]pyrimido[5,4-c]pyridazin-5(6H)-one] | 9.06 mg/kg | – |
| > 30000 nM | >1500 | 19.5 nM | CC(C)(C)Cc1nnc2c3nnc(N4CCOCC4)cc3n(Cc3ccc(Cl)cc3)c(=O)n12 [Example 49, 6-[(4-Chlorophenyl)methyl]-3-(2,2-dimethylpropyl)-8-(morpholin-4-yl)[1,2,4]triazolo[4',3':1,6]pyrimido[5,4-c]pyridazin-5(6H)-one] | – | – |
| > 30000 nM | >1200 | 25 nM | CC(C)(C)c1nnc2c3nnc(N4CCC(O)CC4)cc3n(Cc3ccc(Cl)cc3)c(=O)n12 [Example 55, 3-tert-Butyl-6-[(4-chlorophenyl)methyl]-8-(4-hydroxypiperidin-1-yl)[1,2,4]triazolo[4',3': 1,6]pyrimido[5,4-c]pyridazin-5(6H)-one] | – | – |
